We go through 27 compounds from patent publication US20060194837A1, “Tetrahydroisoquinoline compounds” (priority 2004, published 2006).

Each structure is given as a SMILES string.

In one experiment the target is T1, Rat SERT (Rattus norvegicus, UniProt P31652).
T1 construct: A rat brain without cerebellum (Zivic Laboratories, Inc.—Pittsburgh, Pa.) was homogenized; tissue Zivic Laboratories, Inc; host or cells: rat brain without cerebellum, membranes
Nature of the experiment: Rat brain SERT binding ([3H]-citalopram displacement). The settings on record: rat brain membranes without cerebellum, 0.6 nM [3H]-citalopram, 60 min at 25° C.; read-out: Rat SERT Ki. As for the experimental part:
The supernatant was removed and re-centrifuged at 15,000 rpm for 30 min. […] Membranes were incubated with 0.6 nM [^3H]-Citalopram plus/minus test compounds for 60 min at 25° C. and harvested by rapid filtration over GF/C glass fiber filters (pretreated with 0.3% polyethylenimine) followed by four washes with ice-cold buffer.

A further experiment deals with T2, human H3 receptor (Homo sapiens, UniProt Q9Y5N1).
T2 construct: expressed in transfected cells
T2 sequence (Q9Y5N1 whole entry): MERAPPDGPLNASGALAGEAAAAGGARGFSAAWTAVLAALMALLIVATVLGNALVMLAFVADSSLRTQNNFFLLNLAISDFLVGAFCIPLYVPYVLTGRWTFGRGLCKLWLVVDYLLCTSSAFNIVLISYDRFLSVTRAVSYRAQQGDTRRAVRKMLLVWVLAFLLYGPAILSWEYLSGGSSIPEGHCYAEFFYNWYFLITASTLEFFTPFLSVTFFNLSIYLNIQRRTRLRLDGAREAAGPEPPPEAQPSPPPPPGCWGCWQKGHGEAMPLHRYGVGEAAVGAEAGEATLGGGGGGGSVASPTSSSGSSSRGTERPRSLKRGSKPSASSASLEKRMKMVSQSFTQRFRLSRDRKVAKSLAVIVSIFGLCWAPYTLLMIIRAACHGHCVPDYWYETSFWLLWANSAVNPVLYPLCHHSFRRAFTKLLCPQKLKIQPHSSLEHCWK
Nature of the experiment: H3 receptor binding (N-[3H]-α-methylhistamine displacement). The settings on record: membranes of SK-N-MC cells expressing cloned human H3 receptor, 0.8 nM N-[3H]-α-methylhistamine, 60 min at 25° C. As for the experimental part: Briefly, cell pellets from SK-N-MC cells expressing the human H3 receptor were homogenized in 50 mM Tris-HCl/5 mM EDTA and re-centrifuged at 30,000 g for 30 min. Pellets were re-homogenized in 50 mM Tris/6 mM EDTA (pH 7.4). Membranes were incubated with 0.8 nM N-[^3H]-α-methylhistamine plus/minus test compounds for 60 min at 25° C. and harvested by rapid filtration over GF/C glass fiber filters (pretreated with 0.3% polyethylenimine) followed by four washes with ice-cold buffer. Nonspecific binding was defined in the presence of 10 μM histamine.

T1 sequence (P31652 whole entry): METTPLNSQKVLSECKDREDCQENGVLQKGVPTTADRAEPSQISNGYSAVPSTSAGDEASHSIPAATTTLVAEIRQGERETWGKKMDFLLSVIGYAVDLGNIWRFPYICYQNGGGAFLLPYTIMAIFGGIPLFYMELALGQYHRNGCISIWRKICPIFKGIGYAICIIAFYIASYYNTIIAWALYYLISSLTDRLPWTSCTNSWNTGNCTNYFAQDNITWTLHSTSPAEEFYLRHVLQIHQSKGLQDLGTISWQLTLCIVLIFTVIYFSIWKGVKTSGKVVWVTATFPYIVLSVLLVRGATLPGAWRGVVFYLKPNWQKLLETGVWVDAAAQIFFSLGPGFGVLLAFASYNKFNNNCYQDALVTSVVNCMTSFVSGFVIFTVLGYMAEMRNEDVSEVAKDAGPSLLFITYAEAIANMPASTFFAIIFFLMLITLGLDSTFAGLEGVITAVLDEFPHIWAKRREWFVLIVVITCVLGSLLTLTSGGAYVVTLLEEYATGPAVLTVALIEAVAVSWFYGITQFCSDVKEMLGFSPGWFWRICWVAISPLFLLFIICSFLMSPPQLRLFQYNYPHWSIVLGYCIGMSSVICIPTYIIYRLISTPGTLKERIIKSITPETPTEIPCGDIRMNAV

As to `CN1Cc2cc(OCCCN3CCC(F)CC3)ccc2C(c2ccc(Sc3ccccc3)nc2)C1` (stereo not drawn) [Example 191, 7-[3-(4-Fluoro-piperidin-1-yl)-propoxy]-2-methyl-4-(6-phenylsulfanyl-pyridin-3-yl)-1,2,3,4-tetrahydro-isoquinoline], the Ki (commonly a dissociation constant, usually derived from enzyme kinetics or from competition with a known ligand) at Rat SERT came out at 69 nM; on human H3 receptor, 26 nM.

Turning to `CN1Cc2cc(OCCCN3CCC(F)CC3)ccc2C(c2ccc(Br)nc2)C1` (stereo not drawn) [Example 186, 4-(6-Bromo-pyridin-3-yl)-7-[3-(4-fluoro-piperidin-1-yl)-propoxy]-2-methyl-1,2,3,4-tetrahydro-isoquinoline], the results for the Ki on Rat SERT and on human H3 receptor were 10 nM and 6 nM, respectively.

On to `COc1ccc(C2CN(C)Cc3cc(OCCCN(C)C4CC4)ccc32)cc1` (stereo not drawn) [Example 234, Cyclopropyl-{3-[4-(4-methoxy-phenyl)-2-methyl-1,2,3,4-tetrahydro-isoquinolin-7-yloxy]-propyl}-methyl-amine], for which the Ki at Rat SERT and on human H3 receptor was 3 nM throughout.

Consider `CCN1CCC(COc2ccc3c(c2)CN(C)CC3c2cccc(OC)c2)CC1` (stereo not drawn) [Example 95, 7-(1-Ethyl-piperidin-4-ylmethoxy)-4-(3-methoxy-phenyl)-2-methyl-1,2,3,4-tetrahydro-isoquinoline], for which the Ki on Rat SERT was found to be 15 nM; at human H3 receptor, 2 nM.

Take `C=CCNCCCOc1ccc2c(c1)CN(C)CC2c1ccc(OC)cc1` (stereo not drawn) [Example 227, Allyl-{3-[4-(4-methoxy-phenyl)-2-methyl-1,2,3,4-tetrahydro-isoquinolin-7-yloxy]-propyl}-amine]: the Ki on Rat SERT is 1 nM; at human H3 receptor, 52 nM.

With `COc1ccc(C2CN(C)Cc3cc(OCCCN4CCN(CC5OCCO5)CC4)ccc32)cc1` (stereo not drawn) [Example 207, 7-[3-(4-[1,3]-Dioxolan-2-ylmethyl-piperazin-1-yl)-propoxy]-4-(4-methoxy-phenyl)-2-methyl-1,2,3,4-tetrahydro-isoquinoline], the figures for the Ki on Rat SERT and on human H3 receptor were 15 nM and 78 nM, respectively.

As for `COc1ccc(C2CN(C)Cc3cc(OCC4CCN(C5CCC5)CC4)ccc32)cc1F` (stereo not drawn) [Example 111, 7-(1-Cyclobutyl-piperidin-4-ylmethoxy)-4-(3-fluoro-4-methoxy-phenyl)-2-methyl-1,2,3,4-tetrahydro-isoquinoline], the results for the Ki at Rat SERT and at human H3 receptor were 4 nM and 8 nM, respectively.

For `CN1Cc2cc(OCCCN3CCC(F)CC3)ccc2C(c2ccc(-n3cccn3)nc2)C1` (stereo not drawn) [Example 194, 7-[3-(4-Fluoro-piperidin-1-yl)-propoxy]-2-methyl-4-(6-pyrazol-1-yl-pyridin-3-yl)-1,2,3,4-tetrahydro-isoquinoline], the Ki on Rat SERT came to 7 nM; at human H3 receptor, 1 nM.

Consider `COc1ccc(C2CN(C)Cc3cc(OCCCN(C)C(C)C)ccc32)cc1` (stereo not drawn) [Example 233, Isopropyl-{3-[4-(4-methoxy-phenyl)-2-methyl-1,2,3,4-tetrahydro-isoquinolin-7-yloxy]-propyl}-methyl-amine], for which the Ki at Rat SERT was determined as 3 nM; on human H3 receptor, 4 nM.

Take `COc1ccc(C2CN(C)Cc3cc(OCC4CCN(C5CCC5)CC4)ccc32)cc1Cl` (stereo not drawn) [Example 106, 4-(3-Chloro-4-methoxy-phenyl)-7-(1-cyclobutyl-piperidin-4-ylmethoxy)-2-methyl-1,2,3,4-tetrahydro-isoquinoline]: the Ki at Rat SERT was found to be 25 nM; on human H3 receptor, 6 nM.

Take `COc1ccc(C2CN(C)Cc3cc(OCCCN4CCC5(CC4)OCCO5)ccc32)cc1` (stereo not drawn) [Example 41, 7-[3-(1,4-Dioxa-8-aza-spiro[4.5]dec-8-yl)-propoxy]-4-(4-methoxy-phenyl)-2-methyl-1,2,3,4-tetrahydro-isoquinoline]: the Ki was 6 nM on Rat SERT and 14 nM on human H3 receptor.

As to `COc1ccc(C2CN(C)Cc3cc(OCCCN(C4CC4)C4CC4)ccc32)cc1` (stereo not drawn) [Example 235, Dicyclopropyl-{3-[4-(4-methoxy-phenyl)-2-methyl-1,2,3,4-tetrahydro-isoquinolin-7-yloxy]-propyl}-amine], the Ki was 7 nM at Rat SERT and 6 nM on human H3 receptor.

As to `C#Cc1ccc(C2CN(C)Cc3cc(OCCCN4CCC(F)CC4)ccc32)cn1` (stereo not drawn) [Example 190, 4-(6-Ethynyl-pyridin-3-yl)-7-[3-(4-fluoro-piperidin-1-yl)-propoxy]-2-methyl-1,2,3,4-tetrahydro-isoquinoline], the results for the Ki on Rat SERT and on human H3 receptor were 119 nM and 29 nM, respectively.

On to `COc1ccc(C2CN(C)Cc3cc(OCCCNC(C4CC4)C4CC4)ccc32)cc1` (stereo not drawn) [Example 131, Dicyclopropylmethyl-{3-[4-(4-methoxy-phenyl)-2-methyl-1,2,3,4-tetrahydro-isoquinolin-7-yloxy]-propyl}-amine], for which the Ki was 9 nM on Rat SERT and 85 nM on human H3 receptor.

As for `COc1ccc(C2CN(C)Cc3cc(OCC4CCN(C5CCC5)CC4)ccc32)cc1` (stereo not drawn) [Example 248, 7-(1-Cyclobutyl-piperidin-4-ylmethoxy)-4-(4-methoxy-phenyl)-2-methyl-1,2,3,4-tetrahydro-isoquinoline], the Ki came out at 7 nM at Rat SERT and 5 nM on human H3 receptor.

Consider `COc1ccc(C2CN(C)Cc3cc(OCCCN4CCC(F)CC4)ccc32)cc1F` (single isomer, unassigned) [Example 143, 4-(3-Fluoro-4-methoxy-phenyl)-7-[3-(4-fluoro-piperidin-1-yl)-propoxy]-2-methyl-1,2,3,4-tetrahydro-isoquinoline], for which the Ki at Rat SERT turned out to be 18 nM; on human H3 receptor, 4 nM.

In the case of `COc1ccc(C2CN(C)Cc3cc(OCCCN4CCN(c5ccc(C(F)(F)F)cc5)CC4)ccc32)cc1` (stereo not drawn) [Example 205, 4-(4-Methoxy-phenyl)-2-methyl-7-{3-[4-(4-trifluoromethyl-phenyl)-piperazin-1-yl]-propoxy}-1,2,3,4-tetrahydro-isoquinoline], the Ki at Rat SERT stood at 44 nM; at human H3 receptor, 2000 nM.

As for `CSc1ccc(C2CN(C)Cc3cc(OCC4CCNCC4)ccc32)cc1` (stereo not drawn) [Example 80, 2-Methyl-4-(4-methylsulfanyl-phenyl)-7-(piperidin-4-ylmethoxy)-1,2,3,4-tetrahydro-isoquinoline], the results for the Ki at Rat SERT and at human H3 receptor were 3 nM and 130 nM, respectively.

Regarding `CCOC(=O)C1CCN(CCCOc2ccc3c(c2)CN(C)CC3c2ccc(OC)cc2)CC1` (stereo not drawn) [Example 33, 1-{3-[4-(4-Methoxy-phenyl)-2-methyl-1,2,3,4-tetrahydro-isoquinolin-7-yloxy]-propyl}-piperidine-4-carboxylic acid ethyl ester], the Ki on Rat SERT turned out to be 5 nM; at human H3 receptor, 172 nM.

In the case of `COc1cccc(C2CN(C)Cc3cc(OC4CCN(C(C)C)CC4)ccc32)c1` (stereo not drawn) [Example 98, 7-(1-Isopropyl-piperidin-4-yloxy)-4-(3-methoxy-phenyl)-2-methyl-1,2,3,4-tetrahydro-isoquinoline], the Ki is 11 nM on Rat SERT and 2 nM at human H3 receptor.

Turning to `COc1ccc(C2CN(C)Cc3cc(OCC4CCNCC4)ccc32)cc1Cl` (stereo not drawn) [Example 79, 4-(3-Chloro-4-methoxy-phenyl)-2-methyl-7-(piperidin-4-ylmethoxy)-1,2,3,4-tetrahydro-isoquinoline], the results for the Ki at Rat SERT and on human H3 receptor were 5 nM and 183 nM, respectively.

For the compound `COc1ccc(C2CN(C)Cc3cc(OCCCN4CCN(C(=O)OC(C)(C)C)CC4)ccc32)cc1` (stereo not drawn) [Example 211, 4-{3-[4-(4-Methoxy-phenyl)-2-methyl-1,2,3,4-tetrahydro-isoquinolin-7-yloxy]-propyl}-piperazine-1-carboxylic acid tert-butyl ester], the Ki at Rat SERT stood at 27 nM; at human H3 receptor it was 823 nM.

As for `COc1ccc(C2CN(C)Cc3cc(OC[C@H]4CN(C5CC5)CCO4)ccc32)cc1` (mixture of isomers) [Example 261, 7-(4-Cyclopropyl-morpholin-2R-ylmethoxy)-4-(4-methoxy-phenyl)-2-methyl-1,2,3,4-tetrahydro-isoquinoline], the Ki at Rat SERT turned out to be 32 nM; at human H3 receptor, 62 nM.

For the compound `COc1ccc(C2CN([C@H](C)c3ccccc3)Cc3cc(OCCCN4CCOCC4)ccc32)cc1` (single isomer, unassigned) [Example 75, 4-(4-Methoxy-phenyl)-7-(3-morpholin-4-yl-propoxy)-2-(1-phenyl-ethyl)-1,2,3,4-tetrahydro-isoquinoline], the Ki on Rat SERT amounted to 79 nM; on human H3 receptor, 14 nM.

Consider `CSc1ccc(C2CN(C)Cc3cc(OCC4CCN(CCF)CC4)ccc32)cc1` (stereo not drawn) [Example 178, 7-[1-(2-Fluoro-ethyl)-piperidin-4-ylmethoxy]-2-methyl-4-(4-methylsulfanyl-phenyl)-1,2,3,4-tetrahydro-isoquinoline], for which the Ki at Rat SERT turned out to be 6 nM; on human H3 receptor, 18 nM.

On to `COc1ccc(C2CN(C)Cc3cc(OC4CCN(C(C)C)CC4)ccc32)c(F)c1` (stereo not drawn) [Example 119, 4-(2-Fluoro-4-methoxy-phenyl)-7-(1-isopropyl-piperidin-4-yloxy)-2-methyl-1,2,3,4-tetrahydro-isoquinoline], for which the figures for the Ki on Rat SERT and at human H3 receptor were 9 nM and 1 nM, respectively.

For the compound `C[C@H]1COCCN1CCCOc1ccc2c(c1)CN(C)CC2c1ccc(SC(F)(F)F)cc1` (stereo partly drawn) [Example 219, 2-Methyl-7-[3-(3S-methyl-morpholin-4-yl)-propoxy]-4-(4-trifluoromethylsulfanyl-phenyl)-1,2,3,4-tetrahydro-isoquinoline], the values for the Ki at Rat SERT and at human H3 receptor were 39 nM and 33 nM, respectively.
